From a melting point compilation (Tetko et al.; mined from patent text by program, amines drawn as free bases though some values may be those of a salt)

Point of comparison: O=C(Nc1ccc(N2CCN(Cc3ccccc3)CC2)cc1)c1ccccc1-c1ccccc1, melting point 162 °C. Against it:
- COc1ccc(C2CCCC(=O)N2c2ccc(OC)cc2)cc1 (stereo not drawn) — lower, 108 to 109 °C
- COCCOc1ccc(/C=C/COC(=O)NS(=O)(=O)NCCc2ccccc2)c(Oc2ncc(C(F)(F)F)cc2Cl)c1 — lower, 113 to 114 °C
- COc1nc2ccccc2cc1N(C)C(=O)N1CCN(c2cc(C)cc(C)c2)CC1 — lower, 142 to 143 °C
- N#CCC(=O)c1nn(-c2ccccc2)c2c1COc1c(CN3CCOCC3)cc(F)cc1-2 — higher, 187 to 189 °C
- Cc1noc(NS(=O)(=O)c2cccc(-c3ccccc3)c2)c1Br — lower, 78 to 82 °C
- CCN(CC)C(=O)n1cnc(Sc2c(C)cc(C)c(C)c2OC)n1 — lower, 138 to 139 °C
- C[C@@H](NC(=O)c1ccc[nH]1)C(=O)N[C@H]1CC(=O)O[C@@H]1OCc1ccccc1 — lower, 109 to 112 °C
- COc1ccc(OC)c2c1Cc1c([nH]cnc1=O)N2 — higher, > 300 °C
- O=Cc1c(Cl)ccc(C2OCCO2)c1Cl — lower, 96 to 98 °C
- O=C(O)CCC12CCC(=O)N1C(=O)CC2 — higher, 179 to 181 °C
- CS(=O)(=O)Nc1cc(O)ccc1Oc1ccccc1 — lower, 138 to 140 °C
- CCCCCN(CCCCC)C(=O)N1CCN(C(=O)N(c2ccccc2)c2ccccc2)[C@H](CO)C1 — lower, 133 to 134 °C
- Cc1cc2c(c3ccc(=O)[nH]c13)OC(CSCCN(C)C)C2 (stereo not drawn) — higher, 163 to 165 °C
- CNC(=O)n1sc(SCc2ccc(Cl)cc2)nc1=O — lower, 140 °C
- O=C1c2c(-c3ccccc3)noc2CCC1CCCN1CCC(O)(c2ccc(Cl)cc2)CC1 (stereo not drawn) — lower, 147 to 148 °C
- CCCCCCCN(CCCCCCCCSc1nc(-c2ccccc2)c(-c2ccccc2)[nH]1)C(=O)Nc1ccc(F)cc1F — lower, 89 to 91 °C
- O=C(Nc1cc(N2CCNCC2)cc(C(F)(F)F)c1)c1cccc2cc(Oc3ccnc(NC(=O)C4CC4)c3)ccc12 — higher, 244 to 247 °C
- CN1CCC(N(C)C(=O)c2ccc(Nc3nccc(Nc4ccc(C(F)(F)F)cc4)n3)cc2)CC1 — higher, 238 to 244 °C
- O=C1C(c2c[nH]c3ccccc23)=C(c2c[nH]c3ccccc23)C(=O)N1Cc1ccccc1 — higher, > 290 °C
- CC1(O[Si](C)(C)C(C)(C)C)CN(c2ccc(N3C[C@H](CO)OC3=O)cc2F)C1 — lower, 144 °C
- COC(=O)CCCC(=O)c1ccc(O)c(O)c1 — lower, 104 to 106 °C
- CS(=O)(=O)c1ccc(-c2oc3ccc(F)cc3c(=O)c2-c2cccnc2)cc1 — higher, 177 to 178 °C
- CC1(C)OC[C@@H](N)[C@H](O)CO1 (relative stereo) — lower, 81.5 to 82.5 °C
- CC(=NOCCOc1ccc(C[C@H](Oc2ccc(C(C)(C)C)cc2)C(=O)O)cc1)c1ccc(-c2ccccc2)cc1 — lower, 141 to 143 °C
- COc1ccc(S(=O)(=O)C(Cc2cccnc2)(CC(C)C)C(=O)NO)cc1 (stereo not drawn) — lower, 78 °C
- O=C(NC(Cc1ccc(C(F)(F)F)cc1)C(=O)c1ccc(F)cc1)c1cc(=O)cco1 (stereo not drawn) — lower, 115 to 116 °C
- Nc1cccnc1-c1ccc2[nH]nc(Nc3nccs3)c2c1 — higher, 282 to 283 °C
- COc1cc(Oc2ccc(S(C)(=O)=O)cc2)cc2cc(C3=NCC(CC(=O)O)S3)[nH]c12 (stereo not drawn) — lower, 144 to 145 °C
- CCOC(=O)c1ncc2[nH]c3ccc(-n4cccc4)cc3c2c1C — higher, 214 to 217 °C
- COc1ccc(C=O)c(OC)c1C — lower, 51 to 52 °C
- Cc1cc2nc(C)c(=O)n(C)c2cc1C — higher, 164 to 166 °C
- C=CCc1cc(C#N)ccc1O — lower, 70 °C
- COc1ccc(-c2ccc(CC3CC=CC3)cc2)cc1 — lower, 75 to 77 °C
- O=C(OCc1cc(-c2ccc(F)cc2F)ccc1O)c1cc(O)c2c(c1)C(=O)c1cccc(O)c1C2=O — lower, 128 to 132 °C
- CON(C)C(=O)/C=C/C(=C(c1ccc(F)cc1)c1ccc(F)cc1)C(C)C — lower, 109 to 110 °C
- CC(C)c1cccc(C(C)C)c1NC(=O)NCC1(c2ccccc2)CCCCC1 — higher, 168 to 169 °C
- COc1ccc(CCNC(=O)C(=O)Nc2cccnc2)cc1OC1CCCC1 — higher, 167 °C
- Oc1ccc(-c2noc3cc(O)ccc23)c(O)c1 — higher, 300 to 305 °C
- OC1CSC(Oc2ccc(-c3ccncc3)nc2Cl)C(O)C1O (stereo not drawn) — higher, 186 °C
- COc1ccc(OCc2nc3nccnc3c(=O)[nH]2)cc1 — higher, 233 to 234 °C
- CC(C(=O)N(C)C)n1ccc(-c2cccc([N+](=O)[O-])c2)n1 (stereo not drawn) — lower, 117 to 119 °C
- CC(C)c1nc2c(c3c1[nH]c1ccccc13)C(=O)CC(C)(C)C2 — higher, 176 to 178 °C
- Cc1ccn(-c2ccc(C(=O)N3Cc4cccnc4Nc4ccccc43)c(Cl)c2)n1 — higher, 192 to 193 °C
- CNC(=O)c1ccccc1Nc1nc(Nc2ccc3c(c2)NC(=O)CCC3)ncc1Cl — higher, 293 to 295 °C
- Oc1nc(Cl)n(-c2ccccc2)n1 — lower, 147 to 149 °C
- COc1ccc(S(=O)(=O)N2C(=O)C(O[Si](C)(C)C)(c3ccccc3C(F)(F)F)c3cc(Cl)ccc32)c(OC)c1 (stereo not drawn) — lower, 144 to 145 °C
- COC(=O)c1ccc2c(ccn2C)c1 — lower, 108 to 110 °C
- CC(C)C[C@H](NC(=O)OCC1CC=CCC1)C(=O)N[C@@H](Cc1ccccc1)C(=O)CSCc1ccco1 (stereo partly drawn) — lower, 85 to 87 °C
- COc1cc(-c2ccc(C#N)o2)ccc1Br — lower, 76 to 77 °C
- COc1ccc(NC(=S)C2CC2)cn1 — lower, 79 to 83 °C
- CC(C)C[C@@H](C(=O)N1CCN(C(c2ccc(F)cc2)c2ccc(F)cc2)CC1)N(Cc1ccc(C(C)(C)C)cc1)Cc1ccc(C(C)(C)C)cc1 — lower, 78 to 86 °C
- O=C(C1CCCCC1)N1CC(=NO)NC(=NO)C1 — higher, > 260 °C
- COc1c(O)c(C)c2c(c1OC)OC(C)(CN1CCC(c3ccccc3)CC1)C2 (stereo not drawn) — lower, 112 to 113 °C
- COc1c(O)cc(F)cc1-c1c(Cl)cccc1Cl — lower, 65 to 67 °C
- Cn1c(C(=O)N=[N+]=[N-])c(-c2ccccc2)c2cc([N+](=O)[O-])ccc21 — higher, 262 to 264 °C
- CCOC(=O)Cc1nn(Cc2nc3cc(Br)ccc3s2)c(=O)c2ccccc12 — lower, 160 to 161 °C
- Oc1cnccc1CCCOc1cccnc1Oc1cccc(F)c1 — lower, 68 to 70 °C
- CCC(=O)Nc1cc(C(=O)O)ccc1N1C(=O)CCC1(CO)CO — higher, 217 to 218 °C
- COc1ccc(S(=O)(=O)n2c(Cl)nc3c2c(=O)n(CC2CC2)c(=O)n3CC2CC2)cc1 — lower, 118 °C
- O=C(O)c1cc(S(=O)(=O)c2ccccc2)ccc1[N+](=O)[O-] — higher, 210 to 212 °C
- CCCOc1cc(C(=O)O)cc([N+](=O)[O-])c1-c1ccccc1 — lower, 142 to 144 °C
- Nc1ccc(N)c(C(=O)c2ccccc2Cl)c1 — lower, 30 to 40 °C
- CC1CCC(=NC(=O)Nc2cccc(Cl)c2)N1C (stereo not drawn) — lower, 129 to 130 °C
- COc1c(C)c(OC(=O)c2c(C)c(C)c(OCCCOc3ccc(F)cc3)c(C)c2OC)c(C)c(C)c1C(N)=O — lower, 146 to 149 °C
- O=C(NNCCc1ccc(O)cc1)OCc1ccccc1 — lower, 94 to 97 °C
- CCCCCCCCCCCC(CCCCC(=O)N(c1ccccc1)c1ccccc1)OC (stereo not drawn) — lower, 51 to 52 °C
- CCOC(=O)c1c(-c2ccccc2)c2cc(Cl)ccc2n(C)c1=O — lower, 124 to 125 °C
- c1ccc2c(c1)CC(CN1CCN(c3ccc4c(c3)CCO4)CC1)C2 — higher, 180 to 182 °C
- CCCCC(=N)NC(=O)Nc1ccc(Cl)cc1 — higher, 164 to 169 °C
- C[C@H](NC(=O)c1c[nH]c2ncc(-c3cn(-c4cccc(C(F)(F)F)c4)cn3)nc12)C(C)(C)C — higher, 332 to 333 °C
- O=C(O)CCCCCCCCNS(=O)(=O)c1ccccc1 — lower, 82 to 84 °C
- S=C(Cc1ccccc1)n1c(-c2cscn2)nc2ccccc21 — lower, 122 to 123 °C
- Cc1cc(S(=O)(=O)N2c3ccccc3-c3ccccc3C2C)ccc1O (stereo not drawn) — higher, 186 to 188 °C
- CCCCCCOC(=O)NCc1ccc2c(c1)C(=O)N(C1CCC(=O)NC1=O)C2=O (stereo not drawn) — lower, 111 to 113 °C
- CC(=O)NC(C)(C)c1ccc(CN2CCN(c3ccccc3)CC2)cc1 — lower, 110 to 111 °C
- CC(C)(ON1C(C)(C)CC(OC(=O)c2ccccc2)CC1(C)C)c1ccccc1 — lower, 105 to 108 °C
- Cc1c(-c2ccccc2)oc2c(CSCCCl)cccc2c1=O — lower, 82 to 83 °C
- CC(C)(C)OC(=O)N[C@@H](CCCCNC[C@H](O)CCl)C(=O)OC(C)(C)C — lower, 87 to 88 °C
- CN1CCN(C(=O)COC2c3ccccc3C(=O)N2c2ccc3ccc(Cl)nc3n2)CC1 (stereo not drawn) — higher, 175 °C
- CCOC(=O)CNS(=O)(=O)c1ccc(N2CCC(NC[C@H](O)c3ccc(O)c(NS(C)(=O)=O)c3)CC2)cc1 — lower, 105 to 107 °C
- CCOCc1nc2c(N)nc3ccc(NC(=O)C(C)C)cc3c2n1CC(C)(C)O — higher, 259 to 261 °C
- C=CCC(CC)(C(=O)c1ccc(OCCO)cc1)N(C)C (stereo not drawn) — lower, 80 to 82 °C
- C=C(C)C(=O)NCCNC(=O)CCl — lower, 126 to 128 °C
- CCCn1cc2c(C3C(=O)Nc4ccc(C#N)cc43)nc(Cl)nc2n1 (stereo not drawn) — higher, > 300 °C
- CC1(C)NCCc2c1oc1cc(I)ccc21 — lower, 97 to 98 °C
- CC#CCOc1ccc(OCC(=O)O)cc1 — lower, 114 to 116 °C
- CC(C)(C)c1cc(CN(c2cccnc2)S(=O)(=O)c2ccc(F)cc2)cc(C(C)(C)C)c1O — lower, 137 to 138 °C
- O=c1[nH]c2ccc(C3=NOC(CN4CCC(O)(Cc5ccc(F)cc5)CC4)C3)cc2o1 (stereo not drawn) — higher, 195 to 204 °C
- N#CN(c1ccccc1)c1nc(N(C#N)c2ccccc2)nc(N(C#N)c2ccccc2)n1 — higher, 209 to 215 °C
- Cc1oc(C=Cc2ccc(Cl)cc2)nc1CCl — lower, 121 to 122 °C
- CS(=O)(=O)c1ccc(-c2cnn(CC(F)(F)F)c(=O)c2Oc2cc(C(F)(F)F)ccc2F)cc1 — lower, 133 to 135 °C
- Cc1cc(Cl)nc(N(C(N)=O)c2ccccc2[N+](=O)[O-])n1 — lower, 155 °C
- COC1(OCCc2nc(C(C)C)c(Sc3cc(Cl)cc(Cl)c3)n2C)C2CC3CC(C2)CC1C3 (stereo not drawn) — lower, 74.5 to 76 °C
- O=c1oc(-c2cccc(OC(F)(F)F)c2)cc(O)c1SCc1ccccc1 — lower, 128 to 132 °C
- COc1cc(F)c(C)cc1C(=O)O — lower, 125 to 127 °C
- CC(C)(C)OC(=O)N1CCn2c(-c3ccccc3)cc(C(N)=O)c2C1 — higher, 208 to 210 °C
- O=C(O)c1ccc(NC(=O)C(CC2CCCC2)c2ccc(-c3cccc4ccccc34)cc2)nc1 (stereo not drawn) — lower, 155 to 158 °C
